Test results taken from US7354567B2, “Method of encapsulating metal complex within liposomes” (Bio Med Core Incorporation, priority 2002, dated 2008).
Values belong to the compound of their own block, whether it stands above or below them.

Legend:
[1] = Stability of 99mTc complex in an aqueous solution (radiochemical purity over time); assay type: physicochemical; conditions: for radiochemical purity: after purification by RP-HPLC, after 24 hours
Protocol: 5. Stability of ^99mTc Complex in an Aqueous Solution
In order to compare the stability of ^99mTc-HMPAO and ^99mTc-MRP20 in an aqueous solution, ^99mTc-HMPAO solution was diluted with 50 mM ammonia buffer solution (pH 9.4) into the final ligand concentration of 1 mM. The mixture was incubated in a water bath of 25° C. or 37° C., and radiochemical purity was determined by the above-mentioned analyzing methods after predetermined time (0.5, 2, 4, 8, or 24 hours). ^99mTc-MRP20 aqueous solution was diluted with 50 mM phosphate buffer solution (pH 8.3), and the similar operations were effected.
For the purpose of examining the effect of free ligands on the stability, ^99mTc complex solution was purified by RP-HPLC, and the purified ^99mTc complex solution eluted in 100% acetonitrile was mixed and diluted in the ratio of 1:1 with a buffer solution, and changes over time of the radiochemical purity of the complex was examined similarly as for the complex before purification.

[2] = Partition coefficient of HMPAO and MRP20 (octanol/buffer, absorbance); assay type: physicochemical
Protocol: 4. Measurement of Partition Coefficient of HMPAO and MRP20
20 μl of HMPAO or MRP20 solutions adjusted to 8 mM with a physiology saline solution was added to 500 μl of octanol and 500 μl of a HEPES buffer solution (pH 7.0) or Na2HPO4—NaOH buffer solution (pH 12.0). The mixture was allowed to stand still after stirring. Absorption of the octanol layer and the aqueous layer was measured, and the lipophilic properties of the two complexes were compared.

- radiochemical purity ([1]; 25° C.): 59%
- radiochemical purity remaining (decomposed to) ([1]; unpurified complex, 30 minutes after complex formation): about 40%
Compound: C/C(=N\[O-])[C@@H](C)[N-]CC(C)(C)C[N-][C@H](C)/C(C)=N/O.[O]=[99Tc+3] [^99mTc-HMPAO, ^99mTc-hexamethyl propyleneamine oxime, reference compound]

- radiochemical purity ([1]; 25° C.): 6%
- radiochemical purity remaining (decomposed to) ([1]; unpurified complex, 25° C., 4 hours after complex formation): about 40%
- radiochemical purity retained ([1]; unpurified complex, 2 hours after complex formation): about 70%
Compound: ^99mTc-N-[2-(1H-pyrrolylmethyl)]-N′-(4-penten-3-on-2)-ethane-1,2-diamine [^99mTc-MRP20]

- Absorbance transferred to the octanol layer ([2]; octanol / buffer (pH 7.0 or pH 12.0)): below the detection limit
Compound: C/C(=N\O)C(C)NCC(C)(C)CNC(C)/C(C)=N/O (centres unmarked) [HMPAO, hexamethyl propyleneamine oxime, reference compound]

- ratio of absorbances in the octanol layer and the water layer ([2]; pH of the buffer 7.0): 2.1±0.7
- ratio of absorbances in the octanol layer and the water layer ([2]; pH of the buffer 12.0): 5.0±1.6
Compound: CC(=O)C=C(C)NCCNCc1ccc[nH]1 [MRP20, N-[2-(1H-pyrrolylmethyl)]-N′-(4-penten-3-one-2)-ethane-1,2-diamine]
